Results on 1 compound are retold here after patent publication US20140287048A1, “PASTE COMPRISING NON-STEROIDAL ANTI-INFLAMMATORY DRUG” (priority 2011, published 2014).

This data set can be described thus: in vivo. The following applies: po.

Broadly, the bioavailability is the share of a dose that reaches the circulation, judged against a reference dose that is usually intravenous. With `Cc1cnc(NC(=O)C2=C(O)c3ccccc3S(=O)(=O)N2C)s1` [meloxicam], the bioavailability is ~98%.
